# Results published in patent publication US8137707B2, “Method of obtaining an active ingredient increasing cutaneous cell and tissue longevity, active ingredients and compositions” (Societe Industrielle Limousine d'Application Biologique, …, priority 2006, dated 2012).
# Test system: rat-tail collagen
# Assay: Glycation of collagen induced by glycoaldehyde, fluorescence of glycation products
# Format: biochemical
# Settings: 32 μl of aminoguanidine at 3.39 M, 14 days at 37° C.
# Method: The study is carried out according to the operating protocol that follows.
# On D0, samples to be tested are prepared in sterile hemolysis tubes: • a non-glycated collagen reference, containing • 1 ml of 3 mg/ml rat-tail collagen, • a glycated collagen reference, containing • 1 ml of 3 mg/ml rat-tail collagen, and • 0.3 ml of a glycoaldehyde solution at 143 mM, inducing the glycation reaction, • a positive reference, containing • 1 ml of 3 mg/ml of rat-tail collagen, • 0.3 ml of a solution of glycoaldehyde at 143 mM, inducing the glycation reaction, and • 32 μl of aminoguanidine at 3.39 M, inhibiting the glycation reaction. • product tests, containing • 1 ml of 3 mg/ml rat-tail collagen, • 0.3 ml of a solution of glycoaldehyde at 143 mM, inducing the glycation reaction, and • the active principle according to the invention at 1%, 2.5% and 5%.
# The samples are incubated at 37° C. protected from light for 14 days.
# On D14, the fluorescence emitted by the glycation products formed is measured with the aid of a spectrofluorimeter.
structure (smiles),measurement,setting,value
"N=C(N)NN [Positive reference, aminoguanidine]",Fluorescence Value,glycated collagen reference 449,189
same,Effectiveness (%),versus glycated collagen reference,−58%
